Data as given in patent publication US20220184037A1, “PHARMACEUTICAL AGENTS TARGETING CANCER STEM CELLS” (THE JOHNS HOPKINS UNIVERSITY, priority 2020, published 2022).

Legend:
[1] = system: panel of miRNAs in BFTC 905 cells; test: Expression of a panel of miRNAs; format: cell-based, human; conditions: COX2 inhibitor
Method: (§1) Total RNA from cell lines was isolated using the RNeasy Plus Mini kit (Qiagen, Valencia, USA) according to the manufacturer's protocol. Total RNA extraction from bladder tissue was performed with the QIAzol Lysis Reagent (Qiagen) followed by phenol extraction and ethanol precipitation. Total RNA was eluted in DEPC treated water and stored at −80 ° C. Total RNA extraction from urine was performed using the MirVana miRNA Isolation Kit (Ambion, Austin, USA). These total RNA were converted to cDNA using the SuperScript III First-Strand Synthesis System (Life technologies, Carlsbad, USA), which was then used as a template for Q-RT-PCR. Q-RT-PCR was performed using the Fast SYBR Green Master Mix (Thermo Fisher Scientific, Waltham, USA) on a 7900HT Fast Real-Time PCR System (Life technologies) in triplicate. Micro RNA (miRNA) extraction was performed using the MirVana miRNA Isolation Kit, and was reverse transcribed using TaqMan reverse transcription kit (Applied Biosystems, Foster City, USA) and miRNA-specific RT primers provided with TaqMan microRNA assays (Applied Biosystems). Q-RT-PCR for miRNAs was performed using the TaqMan Universal PCR Master Mix according to the manufacturer's protocol. SDS software (Applied Biosystems) was used to determine cycle threshold (Ct) values. Expression level was quantified relative to β-actin for mRNA and RNU6B for miRNA using the 2-ΔΔCt method (12).

[2] = system: promoters of miR-126, miR-296 and miR-200c; test: Bisulfite sequencing of miRNA promoter methylation; format: cell-based, human; conditions: spheroid cells
Method: Cell pellets were digested with 1% sodium dodecyl sulfate and 50 μg/mL proteinase K (Roche, Nutley, USA) at 48° C. overnight. Isolation of genomic DNA from cell lines was performed with the phenol-chloroform extraction protocol followed by ethanol precipitation. Bisulfite treatment was conducted using an EpiTect Bisulfite K ft (QIAGEN, Valencia, USA), and was subsequently amplified via PCR using primers as shown in the following table. PCR products were purified using the QIAquick Gel Extraction kit (Qiagen), and sequenced by Genewiz DNA sequencing service (Genewiz, South Plainfield, USA). The data were analyzed using the Sequence Scanner v1.0 software (Life technologies). A methylation frequency of ≥50% of total CpG sites within the amplified region was considered “methylation-positive”.

[3] = Body weight of treated mice; format: in vivo; conditions: mice treated with inhibitors compared with control
Method: (§2) For therapeutic efficacy, mice were randomly assigned into experimental groups (five mice per group) when tumors reached a volume of […]. For celecoxib and/or VP treatment, celecoxib (5 mg/kg) was administered via intraperitoneal (i.p.) injection once a day (17), and VP (50 mg/kg) was administered via i.p. every other day (18). EP4 antagonist ONO-AE3-208 (10 mg/kg) was administered via i.p. once a day (19). Control was applied with same volume (10 μL per injection) of 10% dimethyl sulphoxide in 1% TWEEN 80 (Sigma-Aldrich). For GEM and CDDP (GC) treatment (i.p.), CDDP (6 mg/kg) was only applied after the first GEM (60 mg/kg) treatment on day 2, followed by three consecutive treatments of GEM on day 5, 8 and 11 (17). The next cycle was started on day 18, and the treatment was continued until tumor reached 2 cm in diameter. For erlotinib treatment, the mice were treated once a day, 6 days per week, by oral gavage with erlotinib (100 mg/kg) or control (PBS containing 0.5% methyl cellulose (Sigma-Aldrich) and 0.1% TWEEN 80) (20). Tumor size was measured at least every three days. Therapeutic efficacy was assessed using percentage change after treatment related to tumor size before treatment. […]

let-7 = let-7 expression by Q-RT-PCR; format: cell-based, human; conditions: parental or spheroid bladder cancer cells
Method: as §1
For demethylation, cells (1×10^6/T-75 flask) were treated with […] of the demethylating agent 5-Aza-dC (Sigma) dissolved in 50% acetic acid or were mock-treated with phosphate buffered saline (PBS) including the same amount of acetic acid every 24 hours for 5 days. When combined with the histone deacetylase inhibitor TSA (Sigma), 300 nmol/L TSA was added to the medium for the final 24 hours.

COX2 = test: Western blotting of COX2 expression in bladder cancer cells; format: cell-based, human
Method: Whole cell lysates were extracted using RIPA buffer (Thermo Scientific) supplemented with 10 μL/mL Halt™ Protease Inhibitor Cocktail Kit (Life Technologies) and 30 μL/mL Halt™ Phosphatase Inhibitor Cocktail Kit (Life Technologies). The protein concentrations were determined using a Pierce™ BCA Protein Assay Kit (Life Technologies), and the protein were separated on. NuPAGE 4-12% Bis-Tris Gel (Life Technologies) according to the manufacturer's protocol. COX2 (D5H5), NANOG (D73G4), OCT4 (D7O5Z), CD133 (A3G6K), Snail (C15D3), ZEBI (D80D3), Vimentin (D21H3), CDH2 (D4R1H), CDH1 (24E10), p-EGFR (D7A5), EGFR (D38B1), p-AKT (D9E), AKT (cat #, 9272), p-ERK (D13.14.4E), ERK (137F5), p-YAP1 (D9W2I), p-Src (cat #, 2101), Src (36D10), DNMT1 (D63A6), DNMT3A (D23G1), and DNMT3B (D7070) antibodies were obtained from Cell Signaling Technology (Danvers, Mass., USA), except for SOX2 (EPR3131; Abeam, Cambridge, USA), YAP1 (ab52771; Abeam), CD24 (cat #, AF5247-SP; R&D Systems, Minneapolis USA) and β-actin (A2228; Sigma-Aldrich). Secondary horseradish peroxidase (HRP)-conjugated antibodies were obtained from Cell Signaling Technology, and chemiluminescent detection of HRP-labeled antibodies was performed using Amersham ECL Prime Western Blotting Detection Reagent (GE Healthcare, Piscataway, USA). As loading control, β-actin was used.

[4] = system: xenograft tumors that acquired resistance to erlotinib (5637 cells); test: In vivo therapeutic efficacy in tumors with acquired resistance to erlotinib; parameters: species or system mice; conditions: western blotting (FIG. 7G)
Method: as §2

Structure (SMILES) | expression of several miRNAs [1] | promoter methylation of miR-126, miR-296, miR-200c [2] | body weight loss [3] | let-7 expression (let-7) | COX2 expression (COX2; basal-type cells, 1 μM erlotinib) | levels of COX2 expression (COX2; non-basal-type cells, erlotinib) | EGFR-MAPK signaling in xenograft tumors [4]
Cc1ccc(-c2cc(C(F)(F)F)nn2-c2ccc(S(N)(=O)=O)cc2)cc1 [celecoxib, Celecoxib] | induced expression | demethylated | did not observe body weight loss | restoration of let-7 expression | – | – | –
C#Cc1cccc(Nc2ncnc3cc(OCCOC)c(OCCOC)cc23)c1 [erlotinib, Erlotinib] | – | – | – | – | increased COX2 expression | did not affect | remained suppressed
